US11617366B2, “Solvents for agricultural applications and pesticide formulations” (Dow Global Technologies LLC, priority 2017, dated 2023)
Where two headings read alike, the source gives them in different places.

Assay: Solubility of pesticide powders in solvents, 2% stepwise increments
Details: for Dissolving power: compared with comparative solvents DMSO and DMAA810, for each of the active ingredients evaluated
Experimental: The solubility of various pesticides in these solvents or solvent components are evaluated.

[1] = solvent DMAA810, last concentration before powder not dissolved, 2% steps, no more than 2% lower than actual solubility
[2] = solvent DMSO, last concentration before powder not dissolved, 2% steps, no more than 2% lower than actual solubility
[3] = solvent DEAC (N,N-diethyl acetamide), last concentration before powder not dissolved, 2% steps, no more than 2% lower than actual solubility
[4] = solvent DMPA (N,N-dimethyl propanamide), last concentration before powder not dissolved, 2% steps, no more than 2% lower than actual solubility

| Molecule | Dissolving power | Solubility in DEAC [weight %] | Solubility in DMPA [weight %] | Solubility in DMAA810 [1] [weight %] | Solubility in DMSO [2] [weight %] | Solubility in DEAC [3] [weight %] | Solubility in DMPA [4] [weight %] | Solubility in DMAA810 [weight %] | Solubility in DMSO [weight %] |
| --- | --- | --- | --- | --- | --- | --- | --- | --- | --- |
| CCN(CC)C(C)=O [DEAC, N,N-diethyl acetamide] | stronger |  |  |  |  |  |  |  |  |
| CC(C)(C)C(O)(CCc1ccc(Cl)cc1)Cn1cncn1 (stereo not drawn) [Tebuconazole] |  | 51 | 54 | 37 | 32 |  |  |  |  |
| CC(C)(C)C(=O)C(Oc1ccc(Cl)cc1)n1cncn1 (stereo not drawn) [Triazolone] |  |  |  | 39 | 43 | 54 | 58 |  |  |
| CCC(=O)N(C)C [DMPA, N,N-dimethyl propanamide] | stronger |  |  |  |  |  |  |  |  |
| CCCCC(C#N)(Cn1cncn1)c1ccc(Cl)cc1 (stereo not drawn) [Myclobutanil] |  |  |  | 42 | 57 | 57 | 58 |  |  |
| CC(C)N1C(=O)N(c2ccccc2)CS/C1=N\C(C)(C)C [Buprofezin] |  | 31 | 33 |  |  |  |  | 22 | 1 |
| Abamectin |  |  |  | 38 | 21 | 50 | 51 |  |  |
| Cc1c(COC(=O)[C@@H]2[C@H](/C=C(\Cl)C(F)(F)F)C2(C)C)cccc1-c1ccccc1 (racemic) [Bifenthrin] |  |  |  | 33 | 7 | 50 | 47 |  |  |
| COC(=O)N(OC)c1ccccc1COc1ccn(-c2ccc(Cl)cc2)n1 [Pyraclostrobin] |  |  |  | 42 | 40 | 54 | 63 |  |  |
